Reference: US9695160B2, “Piperazine derivatives for treating disorders” (THE UNIVERSITY OF NOTTINGHAM, priority 2014, dated 2017)
“Also recorded” adds a separate entry of the source. Read-outs that look alike come from different tables or passages of the source. One block for each molecule: values may come before it.

Key:
SRPK1 [1] = biological target: T1, SRPK1 (Homo sapiens (Human), UniProt Q96SB4); test: In vitro kinase assay (Kinase-Glo), SRPK1 inhibition; assay type: biochemical; conditions: Table 2, SRPK1 inhibition assay
T1 sequence (Q96SB4 whole entry): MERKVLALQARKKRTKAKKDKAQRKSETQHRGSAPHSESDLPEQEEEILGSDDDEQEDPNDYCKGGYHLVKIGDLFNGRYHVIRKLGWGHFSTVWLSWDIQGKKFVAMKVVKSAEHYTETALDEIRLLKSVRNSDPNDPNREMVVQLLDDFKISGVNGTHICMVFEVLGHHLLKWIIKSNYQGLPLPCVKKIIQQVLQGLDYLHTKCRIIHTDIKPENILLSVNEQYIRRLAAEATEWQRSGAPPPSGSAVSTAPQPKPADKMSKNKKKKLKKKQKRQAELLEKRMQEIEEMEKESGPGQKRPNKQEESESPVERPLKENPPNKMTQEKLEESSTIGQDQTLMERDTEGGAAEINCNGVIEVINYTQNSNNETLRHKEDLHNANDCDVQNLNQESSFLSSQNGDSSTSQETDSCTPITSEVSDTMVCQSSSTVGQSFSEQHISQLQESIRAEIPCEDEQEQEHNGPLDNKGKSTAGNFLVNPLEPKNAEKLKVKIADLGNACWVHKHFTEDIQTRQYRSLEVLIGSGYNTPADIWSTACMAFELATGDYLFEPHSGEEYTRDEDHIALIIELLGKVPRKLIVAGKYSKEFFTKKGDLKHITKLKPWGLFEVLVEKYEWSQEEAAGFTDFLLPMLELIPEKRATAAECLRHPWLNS
Method: Candidate compounds were serially diluted from 10 μM-0.5 nM and added to the reaction mixture, wells with omitted SRPK1 kinase and omitted compounds were also added as controls. All wells contained one percent DMSO. One micromolar ATP was added, wells minus ATP were used as background controls. The plate was then incubated at 30° C. for 10 minutes. An equal volume of Kinase-Glo (Promega, 25 μl) was added to each well and the plate read for luminescence using an Fluostar Optima (BMG Labtech).

[2] = Scleral permeability, modified Ussing chamber, porcine eye tissue; assay type: in vitro ADME; conditions: porcine eyes
Method: (§1) Scleral permeability was measured using a modified Ussing chamber assembly in isotonic assay buffer (pH 7.4). Rabbit or porcine excised eye tissues were mounted in the chambers such that the episcleral side faced the donor chamber and the retinal side faced the receiver chamber. The chambers were filled with equal volumes of assay buffer, with (donor side) or without (receiver side) 1 μg/ml compound. After 4 or 24 hours tissue was removed from the chamber and the receiver side (“vitreous”) sampled. Tissue was dissected into sclera, choroid/RPE, and retina and homogenised.
(§2) After 0, 4 or 24 hours, the fluid from the bottom chamber (vitreous) and the retinal tissue was isolated and compounds purified by acetonitrile extraction and HPLC.

[3] = Scleral permeability, modified Ussing chamber, rabbit eye tissue; conditions: rabbit sclera; for detection in the vitreous: 24 hours
Method: as §1, §2

SRSF1 localisation [4] = test: SRSF1 nuclear localisation by immunofluorescence in PC3 cells; assay type: cell-based
SRSF1 localisation [5] = test: SRSF1 nuclear localisation by immunofluorescence in MDA-MB231 cells; assay type: cell-based
VEGF165b [6] = test: VEGF165b expression in RPE cells; assay type: cell-based
in vitro = conditions: human
Description: We also tested the half life of these compounds when exposed to human liver microsomes.

[7] = Solubility in water of salt forms; conditions: salt forms versus free compounds
[8] = tested on: choroidal neovascularisation; conditions: mouse models of CNV, previously shown; cited from earlier work
[9] = biological target: human ether a go-go related gene (hERG) K+ channel (Homo sapiens (Human), UniProt Q12809); conditions: previously described (Gammons et al., 2013); cited from earlier work
Sequence of human ether a go-go related gene (hERG) K+ channel (Q12809 whole entry): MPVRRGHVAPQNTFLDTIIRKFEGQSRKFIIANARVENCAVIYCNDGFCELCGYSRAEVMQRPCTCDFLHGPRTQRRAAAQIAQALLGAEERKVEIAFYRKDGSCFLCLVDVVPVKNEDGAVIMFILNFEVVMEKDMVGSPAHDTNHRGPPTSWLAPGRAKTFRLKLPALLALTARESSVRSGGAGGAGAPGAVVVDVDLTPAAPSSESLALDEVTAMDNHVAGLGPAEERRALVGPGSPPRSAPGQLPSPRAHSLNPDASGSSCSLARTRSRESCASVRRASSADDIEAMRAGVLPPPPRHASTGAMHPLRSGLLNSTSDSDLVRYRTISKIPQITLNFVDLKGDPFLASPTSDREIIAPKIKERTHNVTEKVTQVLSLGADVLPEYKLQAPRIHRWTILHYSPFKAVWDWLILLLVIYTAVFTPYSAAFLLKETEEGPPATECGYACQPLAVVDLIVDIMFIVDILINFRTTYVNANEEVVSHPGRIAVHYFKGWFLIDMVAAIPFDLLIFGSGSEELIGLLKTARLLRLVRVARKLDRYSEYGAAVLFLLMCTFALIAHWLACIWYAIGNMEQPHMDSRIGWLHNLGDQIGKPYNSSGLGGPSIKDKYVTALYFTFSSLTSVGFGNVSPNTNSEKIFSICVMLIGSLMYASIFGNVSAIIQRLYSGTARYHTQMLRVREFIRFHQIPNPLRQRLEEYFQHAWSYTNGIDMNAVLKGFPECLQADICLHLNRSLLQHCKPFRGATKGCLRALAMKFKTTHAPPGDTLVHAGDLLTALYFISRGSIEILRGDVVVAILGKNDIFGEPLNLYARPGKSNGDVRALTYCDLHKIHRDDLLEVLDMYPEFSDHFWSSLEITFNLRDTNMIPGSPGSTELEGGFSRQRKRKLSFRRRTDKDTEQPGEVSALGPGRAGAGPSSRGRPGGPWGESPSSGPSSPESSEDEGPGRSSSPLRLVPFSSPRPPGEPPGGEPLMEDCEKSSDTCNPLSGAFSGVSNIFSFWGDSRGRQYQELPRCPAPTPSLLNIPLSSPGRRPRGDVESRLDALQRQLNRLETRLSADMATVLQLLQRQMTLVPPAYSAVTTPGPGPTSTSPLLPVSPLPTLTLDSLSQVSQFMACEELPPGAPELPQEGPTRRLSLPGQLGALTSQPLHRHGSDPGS

SRPK1 [10] = biological target: T1, SRPK1; conditions: read-out: IC50 of SRPK1 inhibition; previously shown; cited from earlier work
[11] = assay type: cell-based
Description: To test whether compounds of Formula (I) are safe to administer to patients we began a basic safety test of these compounds in vitro.

VEGF165b [12] = conditions: cited from earlier work
[13] = monthly 0.5 mg, at one year; cited from earlier work

Molecule: CN1CCN(c2ccc(C(F)(F)F)cc2NC(=O)c2nc(-c3ccccc3)c[nH]2)CC1 [Compound 41]
- IC50 (SRPK1 [1]): 493 nM

Molecule: Cc1ccc(Nc2nccc(N(C)c3ccc4c(C)n(C)nc4c3)n2)cc1S(N)(=O)=O [pazopanib]
- accumulation in sclera and RPE/Choroid layer [2]: accumulated in the sclera and in the RPE/Choroid layer
- penetration into retina and vitreous [2]: did not penetrate the retina
- detection in retina and vitreous ([3]; 4 hrs): could not
- detection in the vitreous [3]: detected

Molecule: CN1CCN(c2ccc(C(F)(F)F)cc2NC(=O)c2cccs2)CC1 [Compound 40]
- IC50 (SRPK1 [1]): 4690 nM

Molecule: O=C(Nc1cc(C(F)(F)F)ccc1N1CCN(Cc2ccccn2)CC1)c1ccc(-c2ccncc2)o1 [Compound 12]
- SRSF1 cellular localisation (SRSF1 localisation [4]): inhibited cellular localisation
- SRSF1 cellular localisation (SRSF1 localisation [5]): inhibited cellular localisation
- expression of anti-angiogenic VEGF165b (VEGF165b [6]): dose dependent increase in VEGF165b
- half-life (in vitro; microsomes): 1.02 h
- solubility in water [7]: more freely soluble in water
- detection in the vitreous [3]: more SPHINX31 than pazopanib

Molecule: O=C(Nc1cc(C(F)(F)F)ccc1N1CCCCC1)c1ccncc1 [SRPIN340]
- eye drop concentration of maximum anti-angiogenic effect [8]: 10 µg/mL
- hERG inhibition [9]: do not inhibit hERG
- IC50 (SRPK1 [10]): 1000 nM

Molecule: O=C(Nc1cc(C(F)(F)F)ccc1N1CCN(Cc2ccncc2)CC1)c1ccc(-c2ccncc2)o1 [Compound 14]
- solubility in water [7]: more freely soluble in water

Molecule: Cc1ccc(C(=O)Nc2cc(C(F)(F)F)ccc2N2CCOCC2)o1 [SPHINX]
- eye drop concentration of maximum anti-angiogenic effect [8]: 10 µg/mL
- hERG inhibition [9]: did not inhibit hERG; also recorded: do not inhibit hERG

Molecule: CN(C)CCN1CCN(c2ccc(C(F)(F)F)cc2NC(=O)c2ccc(-c3ccncc3)o2)CC1 [SPHINX7]
- doses at which toxic [11]: greater than 10 μM

Molecule: bevicizumab: an anti-VEGF antibody from which Lucentis was derived
- binding of VEGF165b versus VEGF165 (VEGF165b [12]): equal potency

B1: Lucentis: a novel humanized anti-VEGF antibody fragment (antibody, chains of the INN, looked up, V domains shown)
VH: EVQLVESGGGLVQPGGSLRLSCAASGYDFTHYGMNWVRQAPGKGLEWVGWINTYTGEPTYAADFKRRFTFSLDTSKSTAYLQMNSLRAEDTAVYYCAKYPYYYGTSHWYFDVWGQGTLVTVSS
VL: DIQLTQSPSSLSASVGDRVTITCSASQDISNYLNWYQQKPGKAPKVLIYFTSSLHSGVPSRFSGSGSGTDFTLTISSLQPEDFATYYCQQYSTVPWTFGQGTKVEIK
modifications: Fab
notes: a novel humanized anti-VEGF antibody fragment
- patients who maintained visual acuity (loss of <15 letters) [13]: approximately 95%
- patients with improved vision (gain of ≧15 letters) [13]: ≤ 40%

Continued, values first:

- IC50 (SRPK1 [1]): 10000 nM
Molecule: Cc1cnc(C(=O)Nc2cc(C(F)(F)F)ccc2N2CCN(Cc3ccccn3)CC2)o1 [Compound 27]

- IC50 (SRPK1 [1]): 1.9 nM
Molecule: CSc1nccc(CN2CCN(c3ccc(C(F)(F)F)cc3NC(=O)c3ccc(C)o3)CC2)n1 [Compound 31]

- IC50 (SRPK1 [1]): 4.6 nM
- half-life (in vitro; liver microsomes): 1.04 h
Molecule: O=C(Nc1cc(C(F)(F)F)ccc1N1CCN(Cc2ccccc2)CC1)c1ccc(-c2cccnc2)o1 [Compound 21]

- IC50 (SRPK1 [1]): 10000 nM
Molecule: Cc1nnc(C(=O)Nc2cc(C(F)(F)F)ccc2N2CCN(Cc3ccccn3)CC2)o1 [Compound 28]

- IC50 (SRPK1 [1]): 4.4 nM
- half-life (in vitro; liver microsomes): 0.283 h
Molecule: Cc1ccc(C(=O)Nc2cc(C(F)(F)F)ccc2N2CCN(Cc3ccccc3)CC2)o1 [Compound 20]

- IC50 (SRPK1 [1]): 14.1 nM
Molecule: O=C(Nc1cc(C(F)(F)F)ccc1N1CCN(Cc2ccccc2)CC1)c1ccco1 [Compound 19]

- IC50 (SRPK1 [1]): 5310 nM
Molecule: O=C(Nc1cc(C(F)(F)F)ccc1N1CCN(Cc2ccccn2)CC1)c1nc(-c2ccccc2)no1 [Compound 34]

- solubility in water [7]: more freely soluble in water
Molecule: O=C(Nc1cc(C(F)(F)F)ccc1N1CCN(Cc2cccnc2)CC1)c1ccc(-c2ccncc2)o1 [Compound 13]

- IC50 (SRPK1 [1]): 183 nM
Molecule: O=C(Nc1cc(C(F)(F)F)ccc1N1CCN(Cc2cnccn2)CC1)c1ccco1 [Compound 43]
